Tests used:
[1] = target: T1, Endothelin receptor type B (Sus scrofa, UniProt P35463); assay: In vitro ability to inhibit specific [125I]ET1 binding to porcine kidney (inner medulla) membranes Endothelin B receptor
T1 sequence (P35463 whole entry): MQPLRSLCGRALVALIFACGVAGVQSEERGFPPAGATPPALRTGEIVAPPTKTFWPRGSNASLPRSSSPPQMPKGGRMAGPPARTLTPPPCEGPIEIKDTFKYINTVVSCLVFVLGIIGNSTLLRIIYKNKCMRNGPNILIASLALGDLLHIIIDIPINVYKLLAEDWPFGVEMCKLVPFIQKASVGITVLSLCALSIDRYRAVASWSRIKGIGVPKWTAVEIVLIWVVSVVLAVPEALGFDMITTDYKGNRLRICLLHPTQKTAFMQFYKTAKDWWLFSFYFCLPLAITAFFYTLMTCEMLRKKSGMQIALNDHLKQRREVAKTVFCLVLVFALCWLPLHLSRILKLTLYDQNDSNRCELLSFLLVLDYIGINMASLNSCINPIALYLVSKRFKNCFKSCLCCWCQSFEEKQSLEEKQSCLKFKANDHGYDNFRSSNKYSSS

Endothelin-1 receptor = target: T2, Endothelin-1 receptor (Rattus norvegicus, UniProt P26684); assay: In vitro ability to inhibit specific [125I]ET1 binding to rat aorta membranes Endothelin A receptor; type: tissue-based
T2 sequence (P26684 whole entry): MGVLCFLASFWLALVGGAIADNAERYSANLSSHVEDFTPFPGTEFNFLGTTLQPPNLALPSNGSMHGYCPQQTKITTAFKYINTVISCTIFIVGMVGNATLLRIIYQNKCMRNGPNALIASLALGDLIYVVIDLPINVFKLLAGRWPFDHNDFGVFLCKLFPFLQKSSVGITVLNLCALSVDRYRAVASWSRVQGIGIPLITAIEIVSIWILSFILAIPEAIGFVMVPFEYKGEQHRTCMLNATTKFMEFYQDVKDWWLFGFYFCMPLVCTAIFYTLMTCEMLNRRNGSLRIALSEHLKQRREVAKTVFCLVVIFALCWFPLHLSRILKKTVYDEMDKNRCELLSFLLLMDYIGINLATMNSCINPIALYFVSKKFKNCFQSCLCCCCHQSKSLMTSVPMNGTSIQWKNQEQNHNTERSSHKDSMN

Row | IC50 [1] | IC50 (Endothelin-1 receptor) | SMILES
1 | 2.9 µM | 0.014 µM | COc1ccc(C(=O)/C(Cc2ccc(OC)c(F)c2)=C(\C(=O)O)c2ccc3nsnc3c2)cc1
2 | 1.8 µM | 0.0046 µM | COc1cccc(C(=O)/C(Cc2cc(OC)c(OC)c(OC)c2)=C(\C(=O)O)c2ccc3nsnc3c2)c1
3 | 0.29 µM | 0.065 µM | COc1cc(C/C(C(=O)c2ccc(OC(C)C)c(F)c2)=C(/C(=O)O)c2ccc3nsnc3c2)cc(OC)c1OC
4 | 0.34 µM | 0.0037 µM | COc1cc(C/C(C(=O)c2cc(OC)c(OC)c(OC)c2)=C(/C(=O)O)c2ccc3nsnc3c2)cc(OC)c1OC
5 | 1.8 µM | 0.028 µM | COc1ccc(C/C(C(=O)c2ccc(OC)cc2)=C(/C(=O)O)c2ccc3nsnc3c2)cc1
6 | 0.82 µM | 0.0034 µM | COc1ccc(C(=O)/C(Cc2ccccc2OC)=C(\C(=O)O)c2ccc3nsnc3c2)cc1
7 | 1.9 µM | 0.16 µM | COc1cc(C/C(C(=O)c2ccc(OC(F)F)cc2)=C(/C(=O)O)c2ccc3nsnc3c2)cc(OC)c1OC
